From patent publication US12458641B2, “NK-3 receptor antagonists for therapeutic or cosmetic treatment of excess body fat” (Ogeda SA, priority 2015, dated 2025)
“And” between values parts separate entries of the source, which are not always exact repeats. Equal entries are not always repeated.

Legend:
[1] = rats fed standard chow or high-fat diet (Li et al., 2014); cited from earlier work
[2] = system: leptin; test: Plasma leptin level in female rats over the estrous cycle (ELISA, AUC); type: in vivo; conditions: 10 mg/kg oral BID, p<0.05 paired t-test (FIG. 5)
Method: Daily plasma samples were collected each morning from sexually-mature female rats and analyzed for peak estrogen levels (coincident with proestrus) in order to define the timing of the estrous cycle for individual rats. Next, rats were dosed orally BID (i.e. twice a day) with vehicle (0.5% methylcellulose) over a 4-day ‘baseline’ estrous cycle. Plasma samples were collected daily, each morning, and stored frozen prior to analysis for leptin. […] Plasma samples were collected daily, each morning, and stored frozen prior to analysis for leptin. In a single experiment, plasma samples collected daily during both the ‘baseline’ and ‘treatment’ cycles were analyzed in a common experiment by ELISA assay based upon linear regression analysis against a standard curve. Leptin levels over the 4-day estrous cycle were calculated for individual rats by determination of AUC (area-under-the-curve) using credited data analysis software (GraphPad Prism).

[3] = 13-week once-daily oral dosing in cynomolgus monkeys: body weight; type: in vivo, cynomolgus monkeys (Macaca fascicularis); conditions: female monkeys, 13 weeks, 50 mg/kg (FIG. 3), vehicle group gained about 12%
Text: The cynomolgus monkey was selected as a relevant species because of the similarity of nonhuman primates (NHP) to humans. The route of administration is oral consistent with the intended route in humans.
(§1) Sexually-mature (age range of ˜4 years at pre-dose), purpose-bred cynomolgus monkeys (Macaca fascicularis) of Asian origin were used. Sexual maturity was proven by recording of at least two menstrual bleedings (with 20-to-50 days between menstruations) prior to entry into the study.
NHPs were maintained on a standard lab diet of twice-daily offerings of commercial pellets for primates supplemented with fresh fruit and bread. Dietary and environmental enrichment were also provided through the study duration. Animals were housed in a climate (19-25° C.) and humidity (40-70%) controlled environment with artificial lighting controlled automatically to give a cycle of 12 hours light and 12 hours dark.
NHPs were divided into three treatment groups: vehicle control (N=6) and compound k-5 Dose Groups of 10 mg/kg (N=4) and 50 mg/kg (N=6), respectively. All NHPs were dosed once daily (morning) by oral gavage over the 13 week treatment period of the study. The dose vehicle was 0.5% methylcellulose (Methocel® from Colorcon) in water. […]

[4] = system: leptin; test: 13-week oral dosing in cynomolgus monkeys: serum leptin by ELISA; type: in vivo, cynomolgus monkeys (Macaca fascicularis)
Method: (§2) NHPs were divided into three treatment groups: vehicle control (N=6) and compound k-5 Dose Groups of 10 mg/kg (N=4) and 50 mg/kg (N=6), respectively. All NHPs were dosed once daily (morning) by oral gavage over the 13 week treatment period of the study. The dose vehicle was 0.5% methylcellulose (Methocel® from Colorcon) in water.
All NHPs were subjected to leptin levels measurements. Blood samples were collected at 08 h00 in the morning from overnight-fasted animals on Day-2 prior to dosing (‘pre-dose’), 24 h after the initial dosing, on day 52 of dosing and on day 86 of dosing. Serum samples were derived from these blood samples and stored frozen (−20° C.) until analysis. Leptin concentrations in these serum samples were determined by ELISA assay (Monkey Kit: MyBiosource Cat. N° MBS705354) based upon linear regression analysis against a standard curve.

[5] = Body weight and BMI in healthy women with normal corpulence; type: in vivo, human; conditions: 60 mg for 21 consecutive days, individual subjects
Method: Healthy women with normal corpulence, i.e. having a BMI ranging from 18.5 to 25 kg/m^2, received 60 mg of compound k-5 for 21 consecutive days.
(§3) The weight was measured at screening which took place between 28 and 2 days before start of dosing (D-28 to D-2), as well as on the follow-up visit planned on D42 (21 days after cessation of study compound intake).

[6] = system: leptin; test: Plasma leptin level in women (placebo-controlled, ELISA); type: in vivo, human; conditions: non-obese premenopausal women; 20, 60 and 180 mg once daily, all dose levels; p<0.05 paired t-test (FIG. 4)
Text: This was a randomized, double-blind, placebo-controlled study. All subjects provided written informed consent prior to screening for study eligibility. Healthy female volunteers aged 20-45 years with a body mass index of 19-30 kg/m^2 were included. Participants needed to be in good physical health including the presence of a regular ovulatory menstrual cycle and the discontinuation of all hormonal contraceptive methods at least 3 months prior to screening. Three panels of 8 non-obese female volunteers (median BMI of each panel: 22.3, 23.4, 25.2 kg/m^2) each were administered capsules of compound k-5 or matching placebo in a 6:2 ratio for 21 days. Subjects received the study medication in a once daily regimen after a light standardized breakfast. The participants in these panels were synchronized for their menstrual cycle; i.e. the initiation of dosing was always on Day3±2 of the menstrual cycle. The dose levels investigated were 20, 60 and 180 mg of compound k-5. Blood samples were collected on the day prior to dosing as well as on Day 21 (the final day of dosing) and plasma fractions were retained and stored frozen (−20° C.) until analysis. Leptin concentrations in these plasma samples were determined by ELISA assay (Human Leptin Kit: R&D Systems, Cat. N° DLP00) based upon linear regression analysis against a standard curve.

[7] = 13-week oral dosing in cynomolgus monkeys: whole-body DEXA scan (lean mass, bone mineral density, bone mineral content, fat mass); type: in vivo, cynomolgus monkeys (Macaca fascicularis)
Method: as §1, §2
All NHPs were subjected to a body weight measurement and DEXA scan (Dual-energy X-ray absorptiometry, Hologic Dexa QDR® 4000) in the pre-dose phase and in the final week (week-13) of the dosing phase. The measurements were made under ketamine anesthesia with dorbene and antisedan.
The whole body was scanned by DEXA for measurement of lean mass, bone mineral density, bone mineral content and fat mass.

[8] = Multiple ascending dose administration in healthy women: body weight; type: in vivo, human; conditions: for Weight D 42 / Weight Screening: group mean; for Weight D 42: 21 days after last dose; for Weight Screening: before dosing (D-28 to D-2); for Pre vs Post Difference / Pre vs Post Difference (%): screening vs D42
Method: Three Panels A, B, and C, each consisting of 6 healthy women, were randomized to receive different dose level of compound k-5. In those 3 panels, compound k-5 is administered for 21 consecutive days.
Subjects were residential from the day before first dosing (D-1) until Day 24 (=72 hours after the last dose intake on Day 21). Weekly non-residential visits were organized on Day 28, Day 35 (±1 day) and a follow-up visit on Day 42 (±2 days). Ascending multiple doses of compound k-5 were administered in a once-daily regimen for 21 consecutive days. […] Subjects received the trial medication in a q.d. regimen and after a light breakfast.
Subjects were recruited on the basis of their medical history and health status. Especially, subjects meeting all of the following criteria were eligible to participate in this study: • 1) Premenopausal females between 18 and 45 years of age inclusive. • 2) Healthy with no clinically significant abnormalities as determined by medical history, physical examination, blood chemistry assessments, hematologic assessments, coagulation and urinalysis, measurement of vital signs, and ECG. Isolated out-of-range values judged by the physician to be of no clinical significance were allowed. […] Weight Measurement
The weight was measured at screening, which took place between 28 and 2 days before start of dosing (D-28 to D-2), and at the end-of-study visit (D42, i.e. 21 days after cessation of study compound intake).
A two-tailed T-test for paired samples was used to explore the difference between the screening and post-study values for weight.

[9] = Body weight and BMI in overweight women; type: in vivo, human; conditions: 180 mg for 21 consecutive days, individual subjects
Method: Overweight women, i.e. having a BMI ranging from 25 to 30 kg/m^2, received 180 mg of compound k-5 for 21 consecutive days.
as §3

CC[C@H](NC(=O)c1c(C)c(-c2ccccc2)nc2ccccc12)c1ccccc1 [SB222200, 3-Methyl-2-phenyl-N-[(1S)-1-phenylpropyl]-4-quinolinecarboxamide]
effect on weight [1]: no effect on weight was observed

Cc1nsc(-c2nnc3n2CCN(C(=O)c2ccc(F)cc2)[C@@H]3C)n1 [k-5, (R)-(4-fluorophenyl)(8-methyl-3-(3-methyl-1,2,4-thiadiazol-5-yl)-5,6-dihydro-[1,2,4]triazolo[4,3-a]pyrazin-7(8H)-yl)methanone]
plasma leptin levels over the 4-day estrous cycle (AUC) versus baseline cycle [2]: increases plasma leptin levels | change in mean weight over the course of the dosing phase [3]: no significant change | serum leptin levels 24-hours after initial dosing ([4]; 50 mg/kg oral (FIG. 2), relative to pre-dose and to time-matched vehicle group): significantly increases | serum leptin levels over the duration of dosing relative to vehicle-treated group ([4]; 50 mg/kg oral once daily, up to day 86 (FIG. 2)): persistently higher | BMI D 42 ([5]; D42): 21.45 and 22.95 and 21.39 | BMI screening ([5]; before dosing): 22.18 and 23.71 and 21.55 | Difference ([5]; screening vs D42): -2.2 kg and -2 kg and -0.5 kg | Difference (%) ([5]; screening vs D42): −3.43% and −3.28% and −0.74% | Weight D 42 ([5]; women BMI 18.5 to 25 kg/m^2, D42): 64.2 kg and 61 kg and 67.8 kg | Weight Screening ([5]; women BMI 18.5 to 25 kg/m^2, before dosing): 66.4 kg and 63 kg and 68.3 kg | leptin levels following 21 days of treatment relative to pre-dose levels [6]: increases serum leptin levels | % fat/total mass, treated versus vehicle-treated group ([7]; 50 mg/kg, week 13, N=6/group): statistically-significant difference | change in % fat/total mass over the 13-week treatment period (DEXA) ([7]; 10 and 50 mg/kg dose groups, pre-dose vs week 13, increased in the vehicle group (FIG. 1)): no significant change | Weight D 42 ([8]; 20 mg once daily for 21 days): 58.0 kg | Weight Screening ([8]; 20 mg once daily for 21 days): 58.2 kg | Pre vs Post Difference ([8]; 20 mg once daily for 21 days): -0.13 kg | Pre vs Post Difference (%) ([8]; 20 mg once daily for 21 days): −0.23% | Weight D 42 ([8]; 60 mg once daily for 21 days): 71.9 kg | Weight Screening ([8]; 60 mg once daily for 21 days): 73.3 kg | Pre vs Post Difference ([8]; 60 mg once daily for 21 days): -1.38 kg | Pre vs Post Difference (%) ([8]; 60 mg once daily for 21 days): −1.92% | Weight D 42 ([8]; 180 mg once daily for 21 days): 66.9 kg | Weight Screening ([8]; 180 mg once daily for 21 days): 69.0 kg | Pre vs Post Difference ([8]; 180 mg once daily for 21 days): -2.10 kg | Pre vs Post Difference (%) ([8]; 180 mg once daily for 21 days): −3.14% | weight lowering with increasing doses ([8]; 20, 60, 180 mg once daily for 21 days, healthy women): dose-dependent trend exists towards weight lowering | BMI D 42 ([9]; D42): 26.79 and 26.17 and 26.21 | BMI screening ([9]; before dosing): 27.94 and 27.81 and 27.15 | Difference ([9]; screening vs D42): -2.8 kg and -4.2 kg and -3 kg | Difference (%) ([9]; screening vs D42): −4.29% and −6.27% and −3.57% | Weight Screening ([9]; overweight women BMI 25 to 30 kg/m^2, before dosing): 68 kg and 71.2 kg and 87 kg | Weight D 42 ([9]; overweight women, D42): 65.2 kg and 67 kg and 84 kg
